In the OligoGym collection:
After the bases stand the sugars from the 5' end (letter, count) and the backbone: PS all phosphorothioate, else s phosphorothioate and o phosphodiester by linkage. Methylation of C is not given here. e = 2'-O-(2-methoxyethyl) (MOE); k = constrained ethyl (cEt); d = 2'-deoxy (DNA); m = 2'-O-methyl

Target: HSD17B13
Conditions: ASO, HepaRG

## AAGGAGTATGACAACT (sugars k3 d10 k3, PS)
1 µM
  target mRNA inhibition: 28%

## ACTGCTGCTAGTGCCA (sugars k3 d1 m1 d8 k3, PS)
1 µM
  target mRNA inhibition: 64%

## CGTTUTGGGCTAATGA (sugars k3 d1 m1 d8 k3, PS)
1 µM
  target mRNA inhibition: 34%

## CCAGTACAGTTCCTTT (sugars kkdddddddddkekek, PS)
0.02 µM
  target mRNA inhibition: 29%
0.078 µM
  target mRNA inhibition: 21%
0.313 µM
  target mRNA inhibition: 44%
1 µM
  target mRNA inhibition: 75%
1.25 µM
  target mRNA inhibition: 61%
5 µM
  target mRNA inhibition: 90%

## TACGCATGCGCAGTGA (sugars k3 d10 k3, PS)
1 µM
  target mRNA inhibition: 60%

## TGTGATTGAGTTCTCC (sugars k3 d1 m1 d8 k3, PS)
1 µM
  target mRNA inhibition: 34%

## CATAAGAGATGAGTAG (sugars k3 d10 k3, PS)
1 µM
  target mRNA inhibition: 44%

## TAGGCTTAGTGTAGAA (sugars k3 d10 k3, PS)
1 µM
  target mRNA inhibition: 38%

## AGACAGACCAAGTAGC (sugars k3 d10 k3, PS)
1 µM
  target mRNA inhibition: 21%

## TTCCATCTATCAGACT (sugars kkdddddddddkekek, PS)
1 µM
  target mRNA inhibition: 33%

## TTGTGTAGTCCTAGGG (sugars k3 d10 k3, PS)
1 µM
  target mRNA inhibition: 64%

## GTGAACCCAGTATTCA (sugars k3 d10 k3, PS)
1 µM
  target mRNA inhibition: 1%

## GGAAAGGATATTTGGC (sugars k3 d10 k3, PS)
1 µM
  target mRNA inhibition: 58%

## AAAGATGTACACTGAC (sugars k3 d10 k3, PS)
1 µM
  target mRNA inhibition: 57%

## CTTGATTAAGGCAAAG (sugars k3 d10 k3, PS)
1 µM
  target mRNA inhibition: 38%

## TGGATATACTGTCCCA (sugars k3 d10 k3, PS)
1 µM
  target mRNA inhibition: 24%

## AAACTAGTGGTAATGG (sugars k3 d10 k3, PS)
1 µM
  target mRNA inhibition: 47%

## GCCTAGTTTTCGGCAC (sugars k3 d10 k3, PS)
1 µM
  target mRNA inhibition: 12%

## AACAATCTCCCCAGCC (sugars k3 d10 k3, PS)
1 µM
  target mRNA inhibition: 59%

## GATACCAGTTTTTCCC (sugars k3 d10 k3, PS)
1 µM
  target mRNA inhibition: 75%

## AGAATAGGAGAGTCTT (sugars k3 d10 k3, PS)
1 µM
  target mRNA inhibition: 64%

## AAGAGCCAAACTGCTA (sugars k3 d10 k3, PS)
0.02 µM
  target mRNA inhibition: 0%
0.078 µM
  target mRNA inhibition: 0%
0.313 µM
  target mRNA inhibition: 11%
1 µM
  target mRNA inhibition: 63%
1.25 µM
  target mRNA inhibition: 46%
5 µM
  target mRNA inhibition: 66%

## GCTAGACAATTGCAAA (sugars k3 d10 k3, PS)
1 µM
  target mRNA inhibition: 77%

## GAAATATAGAGGGTCC (sugars k3 d10 k3, PS)
1 µM
  target mRNA inhibition: 22%

## CCAATATGCTCTGTCG (sugars k3 d10 k3, PS)
1 µM
  target mRNA inhibition: 65%

## GCCTTGAATAGCAAGC (sugars k3 d9 k3 e1, PS)
1 µM
  target mRNA inhibition: 38%

## TGATACACCAATGCAG (sugars k3 d9 k3 e1, PS)
1 µM
  target mRNA inhibition: 58%

## TTCTGTGGCATGGCTA (sugars k3 d10 k3, PS)
0.02 µM
  target mRNA inhibition: 0%
0.078 µM
  target mRNA inhibition: 0%
0.313 µM
  target mRNA inhibition: 34%
1 µM
  target mRNA inhibition: 78%
1.25 µM
  target mRNA inhibition: 67%
5 µM
  target mRNA inhibition: 91%

## GACAGTAAAATTATGC (sugars k3 d10 k3, PS)
1 µM
  target mRNA inhibition: 57%

## GAATAGCAAGCCAACA (sugars k3 d1 m1 d8 k3, PS)
1 µM
  target mRNA inhibition: 23%

## ATATGTCCAGGTTGAG (sugars k3 d1 m1 d8 k3, PS)
1 µM
  target mRNA inhibition: 48%

## TGCTGCATTAATGCCA (sugars k3 d9 k3 e1, PS)
1 µM
  target mRNA inhibition: 6%

## CTTGATCTCTTAGCTG (sugars k3 d1 m1 d8 k3, PS)
1 µM
  target mRNA inhibition: 32%

## TCTTATCTTGGGCACC (sugars k3 d10 k3, PS)
1 µM
  target mRNA inhibition: 44%

## CATAGCTAACTCAGGC (sugars k3 d10 k3, PS)
1 µM
  target mRNA inhibition: 29%

## GGAGTAGATGATGGTG (sugars k3 d10 k3, PS)
1 µM
  target mRNA inhibition: 31%

## GACTTTCATAGGGAGA (sugars k3 d10 k3, PS)
1 µM
  target mRNA inhibition: 72%

## AGGCATTAGATGGTAA (sugars k3 d10 k3, PS)
1 µM
  target mRNA inhibition: 51%

## TGTCCACCTTTAAATG (sugars k3 d9 k3 e1, PS)
1 µM
  target mRNA inhibition: 28%

## AGTAATGAGAACAATC (sugars k3 d10 k3, PS)
1 µM
  target mRNA inhibition: 45%

## GAGCCTAAAATTGTCT (sugars k3 d10 k3, PS)
1 µM
  target mRNA inhibition: 49%

## ATGGTAAACTGTATGC (sugars k3 d10 k3, PS)
0.02 µM
  target mRNA inhibition: 19%
0.078 µM
  target mRNA inhibition: 23%
0.313 µM
  target mRNA inhibition: 53%
1 µM
  target mRNA inhibition: 78%
1.25 µM
  target mRNA inhibition: 75%
5 µM
  target mRNA inhibition: 89%

## GTATTTGAGATTCACC (sugars k3 d10 k3, PS)
1 µM
  target mRNA inhibition: 41%

## ACTTGATCTCTTAGCT (sugars k3 d1 m1 d8 k3, PS)
1 µM
  target mRNA inhibition: 39%

## GTATTTGGGTGTTCTG (sugars k3 d10 k3, PS)
1 µM
  target mRNA inhibition: 36%

## AAGTTCTGATGTCAGA (sugars k3 d10 k3, PS)
1 µM
  target mRNA inhibition: 7%

## AAAAAGCTTATCGAGT (sugars k3 d10 k3, PS)
1 µM
  target mRNA inhibition: 8%

## GGAAATTCACAATCTA (sugars k3 d10 k3, PS)
1 µM
  target mRNA inhibition: 22%

## TACTUGAACAGTCTTA (sugars k3 d1 m1 d8 k3, PS)
1 µM
  target mRNA inhibition: 38%

## AGCATTCCATGATTAA (sugars k3 d10 k3, PS)
1 µM
  target mRNA inhibition: 47%

## ACGGTGATCAAATGTA (sugars k3 d9 k3 e1, PS)
1 µM
  target mRNA inhibition: 41%

## CTCCAGTAATGAGAAC (sugars k3 d10 k3, PS)
1 µM
  target mRNA inhibition: 40%

## CAATACAGGCCATAAT (sugars k3 d10 k3, PS)
1 µM
  target mRNA inhibition: 0%

## ATGTAATAGCCAGTAC (sugars k3 d1 m1 d8 k3, PS)
1 µM
  target mRNA inhibition: 42%

## AAGTTATTATCCCCAC (sugars k3 d10 k3, PS)
1 µM
  target mRNA inhibition: 60%

## AGAAGATATTATCAGC (sugars k3 d10 k3, PS)
1 µM
  target mRNA inhibition: 64%

## TTTGAGCCTAAAATTG (sugars k3 d10 k3, PS)
1 µM
  target mRNA inhibition: 26%

## TCTAGGAGATATAACA (sugars k3 d10 k3, PS)
1 µM
  target mRNA inhibition: 48%

## GGTTGAGATAAAGCTG (sugars kkdddddddddkekek, PS)
1 µM
  target mRNA inhibition: 60%

## GTTTCTTATGTAATAG (sugars k3 d1 m1 d8 k3, PS)
1 µM
  target mRNA inhibition: 25%

## AGAAATTCACCTTGAC (sugars k3 d10 k3, PS)
1 µM
  target mRNA inhibition: 39%

## AGTAAATTGAATAGCC (sugars k3 d10 k3, PS)
1 µM
  target mRNA inhibition: 39%

## TATATACATCAACTCC (sugars k3 d10 k3, PS)
1 µM
  target mRNA inhibition: 61%

## GATTCGAAACTATTCA (sugars k3 d10 k3, PS)
1 µM
  target mRNA inhibition: 57%

## TATTCTGTGGCATGGC (sugars k3 d9 k3 e1, PS)
0.02 µM
  target mRNA inhibition: 10%
0.078 µM
  target mRNA inhibition: 0%
0.313 µM
  target mRNA inhibition: 21%
1 µM
  target mRNA inhibition: 74%
1.25 µM
  target mRNA inhibition: 55%
5 µM
  target mRNA inhibition: 68%

## CTGTGTTAGCTTTAAT (sugars k3 d9 k3 e1, PS)
1 µM
  target mRNA inhibition: 50%

## GGGTGGTAACGGTGAT (sugars k3 d10 k3, PS)
1 µM
  target mRNA inhibition: 46%

## ACGATGTGGCCATGAT (sugars k3 d10 k3, PS)
1 µM
  target mRNA inhibition: 52%

## GATACCTGAAAAGCCC (sugars k3 d10 k3, PS)
1 µM
  target mRNA inhibition: 49%

## CTGCAACTTTTAGTCA (sugars k3 d10 k3, PS)
1 µM
  target mRNA inhibition: 21%

## ATTGATACACCAATGC (sugars k3 d10 k3, PS)
1 µM
  target mRNA inhibition: 66%
